Literature values in patent US8535699B2, “Insect-repelling resin composition and extended-release insect-repelling resin molded product obtained therefrom” (Sumika Life Tech, Limited, priority 2009, dated 2013).

Details: at 20° C.

SMILES	Vapour pressure
CC(C)=CC1C(C(=O)OCc2cccc(Oc3ccccc3)c2)C1(C)C (centres unmarked) [Phenothrin]	1.2×10^−6 mmHg
CCOP(=O)(OCC)OCC [Triethyl phosphate]	0.3 mmHg
